Assays:
[1] = tested on: T. gondii; assay: In-out assay of parasite invasion of host cells (SAG1 staining); assay type: cell-based, Toxoplasma gondii; settings: CHO cells, 1 μM, RH-RFP T. gondii, 2 hours
Description: (A) CHO cells were treated with Saracatinib (1 μM) and infected with RH-RFP T. gondii for 2 hours. Cells were fixed with Paraformaldehyde (PFA) and were not permeabilized prior to staining with a tachyzoite marker, SAG1. […] will express red fluorescence while extracellular parasites stain for SAG1 and appear green or yellow in color. Data are shown as mean±SEM. The graphs show data from 7 independent monolayers pooled from 2 different experiments. (B) CHO cells were treated with Saracatinib (1 μM) and infected with RH-RFP T. gondii for 24 hours. Number of tachyzoites per vacuole were determined by light microscopy and quantified as percentage of total vacuoles. Data are shown as mean±SEM. The graphs show data from 6 independent monolayers pooled from 3 different experiments. […] (PDF)
Mammalian cells were infected with RFP-T. gondii (RH) and fixed with 4% paraformaldehyde. Cells were stained with antibodies against LC3 (MBL International, Woburn, MA), LAMP1 (DSHB, Iowa City, IA), or GRA7 (gift from John Boothroyd, Stanford University, Stanford, CA) followed by a fluorescently conjugated secondary antibodies (Jackson ImmunoResearch Laboratories, West Grove, PA). LC3 and LAMP1 were evaluated for accumulation at 5- and 7 hours post-infection, respectively. […] Parasites were evaluated blindly in multiple random fields of view and 100 parasites were examined per group. […]

[2] = tested on: phospho-S473 Akt; assay: Confocal microscopy of phospho-S473 Akt accumulation around parasites in CHO cells; assay type: cell-based, Chinese Hamster; settings: RFP-T. gondii
Description: Mammalian cells were infected with RFP-T. gondii (RH) and fixed with 4% paraformaldehyde. Cells were stained with antibodies against LC3 (MBL International, Woburn, MA), LAMP1 (DSHB, Iowa City, IA), or GRA7 (gift from John Boothroyd, Stanford University, Stanford, CA) followed by a fluorescently conjugated secondary antibodies (Jackson ImmunoResearch Laboratories, West Grove, PA). LC3 and LAMP1 were evaluated for accumulation at 5- and 7 hours post-infection, respectively. Cells were stained with antibodies against PTEN (Santa Cruz Biotechnology, Dallas, TX) or anti-phospho S473 Akt (Novus, Centennial, CO). Frozen brain sections were stained with antibodies against PTEN (Novus, Centennial, CO), phospho S473 Akt, SAG-1 (Invitrogen, Waltham, MA) or T. gondii (Biogenex, Fremont, CA). Parasites were evaluated blindly in multiple random fields of view and 100 parasites were examined per group. In-out assays were performed as described using RFP-T gondii, anti-SAG-1 antibody (Invitrogen, Waltham, MA) and an Alexa Fluor 488-conjugated secondary antibody. Olympus FV1200 confocal microscope (Evident/Olympus, Waltham, MA) equipped with UPlanSApa 60× and 100× 1.45NA objectives was used to evaluate the slides.

[3] = tested on: ME49 T. gondii; assay: Ocular and cerebral toxoplasmosis in Dexamethasone-treated mice; assay type: in vivo, C57BL/6 mice; settings: 10 mg kg-1 twice per day, 2 weeks, vs vehicle
[4] = tested on: LAMP1; assay: Immunofluorescence of LAMP1 accumulation around parasites; assay type: cell-based; settings: CHO cells and brain endothelial cells, 1 μM, 7 hours
Description: (§1) FIGS. 3(A-L) illustrate images and graphs showing T. gondii killing induced by Src inhibition is mediated by autophagy. (A-C) CHO cells and primary brain endothelial cells expressing WT or DN EGFR were infected with RFP-T. gondii and treated with Saracatinib 1 μM for 5 hours before staining with an anti-LC3 antibody. Accumulation of LC3 around the parasites was assessed by confocal microscopy. Scale bar, 10 μm. (D-F) CHO cells and primary brain endothelial cells expressing WT or DN EGFR were infected with RFP-T. gondii and treated with Saracatinib 1 μM for 7 hours before staining with anti-LAMP1 antibody. Accumulation of LAMP1 around parasites was assessed as above. G-I) CHO cells and primary brain endothelial cells expressing WT or DN EGFR were transfected with control siRNA or ULK1 siRNA. Relative density of ULK1 was normalized to total Actin followed by normalization relative to Ctr siRNA. […] Cells were treated with or without Saracatinib and infected with RH T. gondii. Monolayers were examined at 24 h. […]
(§2) Mammalian cells were infected with RFP-T. gondii (RH) and fixed with 4% paraformaldehyde. […] LC3 and LAMP1 were evaluated for accumulation at 5- and 7 hours post-infection, respectively. […] Parasites were evaluated blindly in multiple random fields of view and 100 parasites were examined per group. […]

[5] = in vivo; cited from earlier work
[6] = tested on: LC3; assay: Immunofluorescence of LC3 accumulation around parasites; assay type: cell-based; settings: CHO cells and brain endothelial cells expressing DN EGFR, 1 μM, 5 hours
Description: as §1, §2

[7] = tested on: Akt; assay: Immunoblot of phospho-S473 Akt in T. gondii-infected CHO cells; assay type: cell-based, Chinese Hamster; settings: lysates at 2 h
Description: FIGS. 4(A-C) illustrate Src inhibition induces T. gondii killing by impairing Akt activation. (A) CHO cells were challenged with RH-T. gondii. Cell lysates collected at 2 h were probed for Akt and phospho-S473 Akt. Relative density of phospho-Akt was normalized to total Akt and compared to the uninfected sample. Densitometry graph shown as mean±SEM from 3 independent experiments. (B-C) CHO cells or primary brain endothelial cells were transfected with plasmids encoding HA-tagged CA- or HA-tagged WT-Akt. Lysates were probed for actin, HA, Akt and phospho-S473 Akt. Cells were challenged with T. gondii and treated with Saracatinib (1 μM). Cell lysates collected at 2 h were probed for Akt and phospho-S473 Akt. Relative density of phospho-Akt and densitometries were examined as above. Percentages of infected cells and tachyzoites per 100 cells were assessed at 24 h. Data are shown as mean±SEM. The graphs show data from 6 independent monolayers pooled from 3 different experiments. Data points are shown as circles, triangles, or squares corresponding to individual monolayers within each experiment. […]

[8] = tested on: ME49 T. gondii; assay: Pre-established ocular and cerebral toxoplasmosis in B6 mice, 4 weeks of treatment; assay type: in vivo, C57BL/6 mice; settings: four weeks
Description: Results are representative of 2 independent experiments.
Brains and eyes were fixed in 10% formalin before paraffin embedding. Hematoxylin & eosin (H&E) and periodic acid Schiff hematoxylin (P.A.S.H) were used to stain sections from eyes and brains respectively. Brain and ocular histopathology were scored as described previously.

[9] = 10 or 15 mg kg^-1 oral gavage twice per day

CN1CCN(CCOc2cc(OC3CCOCC3)c3c(Nc4c(Cl)ccc5c4OCO5)ncnc3c2)CC1 [Saracatinib, N-(5-chloro-1,3-benzodioxol-4-yl)-7-(2-(4-methylpiperazin-1-yl)ethoxy)-5-(tetrahydro-2H-pyran-4-yloxy)quinazolin-4-amine]
parasite invasion of host cells [1]: did not affect
accumulation of phospho-S473 Akt around intracellular parasites [2]: inhibited
histopathology in the eye and brain [3]: significantly reduced
parasite load in the eye and brain [3]: significantly reduced
accumulation of LAMP1 around intracellular parasites [4]: accumulation of the lysosomal marker, LAMP1, was observed
blood-brain barrier penetration [5]: penetrates the blood-brain barrier
tolerability [5]: well-tolerated
accumulation of LC3 around the parasites [6]: induced accumulation
T. gondii-induced phosphorylation of Akt at Ser473 [7]: abrogated
mice with no significant ocular inflammation ([8]; 15 mg kg^-1 twice per day): 75%
perivascular and diffuse inflammation in the brains ([8]; 15 mg kg^-1 twice per day): No significant perivascular and diffuse inflammation were detected
histopathology in eye and brain [8, 9]: marked reduction
parasite load in the eye and brain [8, 9]: profound reduction
